Results: PubChem BioAssay (NCI)
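GI50 = concentration required for 50% inhibition of growth. TGI is the concentration that stops growth completely.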

Legend:
Experiment in all cases: inhibition of tumour cell growth, NCI panel, 384-well format
786-0 renal = test system: 786-0 renal
A498 renal = test system: A498 renal
A549 NSCLC = test system: A549 NSCLC
ACHN renal = test system: ACHN renal
BT-549 breast = test system: BT-549 breast
CAKI-1 renal = test system: CAKI-1 renal
CCRF-CEM leukemia = test system: CCRF-CEM leukemia
COLO 205 colon = test system: COLO 205 colon
DU-145 prostate = test system: DU-145 prostate
EKVX NSCLC = test system: EKVX NSCLC
HCC-2998 colon = test system: HCC-2998 colon
HCT-116 colon = test system: HCT-116 colon
HCT-15 colon = test system: HCT-15 colon
HL-60(TB) leukemia = test system: HL-60(TB) leukemia
HOP-62 NSCLC = test system: HOP-62 NSCLC
HOP-92 NSCLC = test system: HOP-92 NSCLC
HS 578T breast = test system: HS 578T breast
HT29 colon = test system: HT29 colon
IGROV1 ovarian = test system: IGROV1 ovarian
K-562 leukemia = test system: K-562 leukemia
KM12 colon = test system: KM12 colon
LOX IMVI melanoma = test system: LOX IMVI melanoma
M14 melanoma = test system: M14 melanoma
MALME-3M melanoma = test system: MALME-3M melanoma
MCF7 breast = test system: MCF7 breast
MDA-MB-231 breast = test system: MDA-MB-231 breast
MDA-MB-435 melanoma = test system: MDA-MB-435 melanoma
MDA-MB-468 breast = test system: MDA-MB-468 breast
MOLT-4 leukemia = test system: MOLT-4 leukemia
NCI-H226 lung = test system: NCI-H226 lung
NCI-H23 lung = test system: NCI-H23 lung
NCI-H322M lung = test system: NCI-H322M lung
NCI-H460 NSCLC = test system: NCI-H460 NSCLC
NCI-H522 lung = test system: NCI-H522 lung
OVCAR-3 ovarian = test system: OVCAR-3 ovarian
OVCAR-4 ovarian = test system: OVCAR-4 ovarian
OVCAR-5 ovarian = test system: OVCAR-5 ovarian
OVCAR-8 ovarian = test system: OVCAR-8 ovarian
PC-3 prostate = test system: PC-3 prostate
RPMI-8226 leukemia = test system: RPMI-8226 leukemia
RXF 393 renal = test system: RXF 393 renal
SF-268 CNS = test system: SF-268 CNS
SF-295 CNS = test system: SF-295 CNS
SF-539 CNS = test system: SF-539 CNS
SK-MEL-2 melanoma = test system: SK-MEL-2 melanoma
SK-MEL-28 melanoma = test system: SK-MEL-28 melanoma
SK-MEL-5 melanoma = test system: SK-MEL-5 melanoma
SK-OV-3 ovarian = test system: SK-OV-3 ovarian
SN12C renal = test system: SN12C renal
SNB-19 CNS = test system: SNB-19 CNS
SNB-75 CNS = test system: SNB-75 CNS
SR leukemia = test system: SR leukemia
SW-620 colon = test system: SW-620 colon
T-47D breast = test system: T-47D breast
TK-10 renal = test system: TK-10 renal
U251 glioblastoma = test system: U251 glioblastoma
UACC-257 melanoma = test system: UACC-257 melanoma
UACC-62 melanoma = test system: UACC-62 melanoma
UO-31 renal = test system: UO-31 renal

SMILES: COc1cc([C@@H]2c3cc4c(cc3[C@@H](OC3OC5COC(C)OC5C(O)C3O)[C@H]3COC(=O)[C@H]23)OCO4)cc(OC)c1O (stereo not given in full)
- GI50 ([…]-0 renal): 1590 nM
- TGI (786-0 renal): 7.56 µM
- GI50 (A498 renal): 2000 nM
- TGI (A498 renal): 19 µM
- GI50 (A549 NSCLC): 1220 nM
- TGI (A549 NSCLC): > 47 µM
- GI50 (ACHN renal): 1800 nM
- TGI (ACHN renal): 10.3 µM
- GI50 (BT-549 breast): 877 nM
- TGI (BT-549 breast): 4.74 µM
- GI50 (CAKI-1 renal): 1610 nM
- TGI (CAKI-1 renal): > 41 µM
- GI50 (CCRF-CEM leukemia): 63.8 nM
- TGI (CCRF-CEM leukemia): 200 nM
- GI50 (COLO 205 colon): 433 nM
- TGI (COLO 205 colon): 10.6 µM
- GI50 (DU-145 prostate): 1520 nM
- TGI (DU-145 prostate): 5.25 µM
- GI50 (EKVX NSCLC): 11.3 µM
- TGI (EKVX NSCLC): > 43.6 µM
- GI50 (HCC-2998 colon): 1820 nM
- TGI (HCC-2998 colon): 4.15 µM
- GI50 (HCT-116 colon): 560 nM
- TGI (HCT-116 colon): 25.9 µM
- GI50 (HCT-15 colon): 2010 nM
- TGI (HCT-15 colon): 13.6 µM
- GI50 (HL-60(TB) leukemia): 21.5 nM
- TGI (HL-60(TB) leukemia): 49.2 nM
- GI50 (HOP-62 NSCLC): 747 nM
- TGI (HOP-62 NSCLC): 2510 nM
- GI50 (HOP-92 NSCLC): 2460 nM
- TGI (HOP-92 NSCLC): > 43.1 µM
- GI50 (HS 578T breast): 463 nM
- TGI (HS 578T breast): 4.82 µM
- GI50 (HT29 colon): 2280 nM
- TGI (HT29 colon): 7.3 µM
- GI50 (IGROV1 ovarian): 4.27 µM
- TGI (IGROV1 ovarian): > 37.6 µM
- GI50 (K-562 leukemia): 910 nM
- TGI (K-562 leukemia): 6.36 µM
- GI50 (KM12 colon): 1680 nM
- TGI (KM12 colon): 7.91 µM
- GI50 (LOX IMVI melanoma): 1660 nM
- TGI (LOX IMVI melanoma): 15.9 µM
- GI50 (M14 melanoma): 1320 nM
- TGI (M14 melanoma): 6.64 µM
- GI50 (MALME-3M melanoma): 6.15 µM
- TGI (MALME-3M melanoma): 43.5 µM
- GI50 (MCF7 breast): 716 nM
- GI50 (MDA-MB-231 breast): 1880 nM
- TGI (MDA-MB-231 breast): 4.62 µM
- GI50 (MDA-MB-435 melanoma): 3.96 µM
- TGI (MDA-MB-435 melanoma): 20.4 µM
- GI50 (MDA-MB-468 breast): 1130 nM
- TGI (MDA-MB-468 breast): 2780 nM
- GI50 (MOLT-4 leukemia): 17.6 nM
- TGI (MOLT-4 leukemia): 38.9 nM
- GI50 (NCI-H226 lung): 2480 nM
- TGI (NCI-H226 lung): > 37.2 µM
- GI50 (NCI-H23 lung): 809 nM
- TGI (NCI-H23 lung): 4.37 µM
- GI50 (NCI-H322M lung): 29.1 µM
- TGI (NCI-H322M lung): > 96.7 µM
- GI50 (NCI-H460 NSCLC): 91.5 nM
- TGI (NCI-H460 NSCLC): 7.61 µM
- GI50 (NCI-H522 lung): 1210 nM
- TGI (NCI-H522 lung): 7.35 µM
- GI50 (OVCAR-3 ovarian): 2640 nM
- TGI (OVCAR-3 ovarian): 13.8 µM
- GI50 (OVCAR-4 ovarian): 39.9 µM
- GI50 (OVCAR-5 ovarian): 3.37 µM
- TGI (OVCAR-5 ovarian): 13.8 µM
- GI50 (OVCAR-8 ovarian): 1530 nM
- TGI (OVCAR-8 ovarian): 10.3 µM
- GI50 (PC-3 prostate): 20.4 µM
- GI50 (RPMI-8226 leukemia): 36.1 nM
- TGI (RPMI-8226 leukemia): 564 nM
- GI50 (RXF 393 renal): 9.62 µM
- TGI (RXF 393 renal): 38.3 µM
- GI50 (SF-268 CNS): 1360 nM
- TGI (SF-268 CNS): 6.87 µM
- GI50 (SF-295 CNS): 851 nM
- TGI (SF-295 CNS): 3.01 µM
- GI50 (SF-539 CNS): 976 nM
- TGI (SF-539 CNS): 4.38 µM
- GI50 (SK-MEL-2 melanoma): 4.15 µM
- TGI (SK-MEL-2 melanoma): 8.27 µM
- GI50 (SK-MEL-28 melanoma): 2610 nM
- TGI (SK-MEL-28 melanoma): 11.4 µM
- GI50 (SK-MEL-5 melanoma): 370 nM
- TGI (SK-MEL-5 melanoma): 1710 nM
- GI50 (SK-OV-3 ovarian): 2940 nM
- TGI (SK-OV-3 ovarian): 14.6 µM
- GI50 (SN12C renal): 1280 nM
- TGI (SN12C renal): 5.72 µM
- GI50 (SNB-19 CNS): 1080 nM
- TGI (SNB-19 CNS): > 23.1 µM
- GI50 (SNB-75 CNS): 1360 nM
- TGI (SNB-75 CNS): 6.63 µM
- GI50 (SR leukemia): 16.1 nM
- TGI (SR leukemia): 49.4 nM
- GI50 (SW-620 colon): 441 nM
- TGI (SW-620 colon): 5.58 µM
- GI50 (T-47D breast): 1040 nM
- TGI (T-47D breast): > 95.3 µM
- GI50 (TK-10 renal): 2880 nM
- TGI (TK-10 renal): 11.3 µM
- GI50 (U251 glioblastoma): 533 nM
- TGI (U251 glioblastoma): 5.05 µM
- GI50 (UACC-257 melanoma): 16.6 µM
- TGI (UACC-257 melanoma): > 75.9 µM
- GI50 (UACC-62 melanoma): 1330 nM
- TGI (UACC-62 melanoma): 16.6 µM
- GI50 (UO-31 renal): 22.2 µM
- TGI (UO-31 renal): > 77.9 µM
